# Assay results reported in US7030236B2, “Antisense oligonucleotides tarageting folate receptor alpha, and the use thereof” (priority 2001, dated 2006).
# How the values were obtained:
# Type in all cases: cell-based, human
# [1] = system: αhFR mRNA; assay: Northern analysis of αhFR mRNA in KB cells; settings: oligonucleotide treatment over night
# Description: Expression of αhFR is known to be elevated in cancer. In particular, increased αhFR expression is found in 90% of human epithelial ovarian malignancies and is associated with a poor disease prognosis. It is possible that over expression of αhFR confers a growth survival advantage in ovarian cancer cells, since folates are involved in numerous cellular processes, including DNA and RNA synthesis.
# Northern Analysis. KB cells were maintained over night in growth media containing sense or antisense unmodified DNA oligonucleotides at the indicated concentrations. Total RNA was isolated (Promega, Madison, Wis.) and samples containing 20 μg of total cellular RNA were resolved on a 1% agarose/0.66M formaldehyde/0.023 3-(N-morpholino) propansulfonic acid gel. The RNA's were transferred to a nitrocellulose membrane (Schleicher and Schuell, Portran, Keene, N.H.) and then hybridized to a random ^32P-labeled αhFR cDNA probe as described previously.
# [2] = system: T47D; assay: XTT cell survival after Tf-liposome-mediated oligonucleotide transfection, T47D
# Procedure: (§1) FIGS. 10A–10B: FIGS. 10A and 10B depict the effect of various concentrations of αhFR AS-6 oligonucleotide (A) and S-6 oligonucleotide (B) on survival of cultured human breast cancer cells. End-modified phosphorothioated oligonucleotides were transfected into 2×10^4 cells at the indicated concentrations for 6 hrs using a Tf-liposome-mediated delivery complex. Cell survival was assessed 48 hrs after transfection by XTT assay.
# (§2) To determine the effect of αhFR antisense oligonucleotide, on the survival of cultured breast cancer cells, we transfected AS6 oligonucleotide and S6 oligonucleotide at various concentrations via the Tf-liposome-mediated gene delivery system.
# [3] = system: KB cells; assay: KB cell viability after oligonucleotide treatment, total protein content by Bradford assay; settings: compared to S-6 control
# Procedure: The effect of AS-6 on the viability of cultured KB cells was evaluated (FIG. 3). […] The decrease in cell viability upon AS-6 treatment correlates well with the decrease in newly synthesized αhFR expression, as determined in FIG. 2B.
# Cell Viability Experiments. Stable transfectants of pRc/CMV αhFR-S or pRc/CMV ahFR-AS constructs were achieved by the calcium phosphate method using the Stratagene Eukaryotic Transfection kit (La Jolla, Calif.) and selected in 500 μg/ml G418. Phosphorothioated-modified αhFR sense (S-6) and antisense (AS-6) DNA oligonucleotides were transfected into 6×10^4 KB cells by incubating oligonucleotides in 1 ml of serum-free media for 6 hrs. Transfections were terminated by the addition of 1 ml of serum-containing low-folate media. Total protein content was assessed 36 hours later by Bradford assay (Biorad, Hercules, Calif.).
# [4] = system: MDA-MB-231; assay: XTT cell survival after Tf-liposome-mediated oligonucleotide transfection, MDA-MB-231; settings: MDA-MB-231, end-modified phosphorothioated oligo, 6 hrs transfection, XTT at 48 hrs
# Procedure: as §1, §2
# [5] = system: MDA-MB-435; assay: XTT cell survival after Tf-liposome-mediated oligonucleotide transfection, MDA-MB-435; settings: MDA-MB-435, end-modified phosphorothioated oligo, 6 hrs transfection, XTT at 48 hrs
# Procedure: as §1, §2
# [6] = system: MDA-MB-435 cells; assay: Chemosensitization to doxorubicin, XTT assay; settings: 500 nM oligo, doxorubicin 24 hrs after transfection, XTT after 72 hrs
# Procedure: FIG. 11: FIG. 11 depicts chemosensitization of MDA-MB-435 breast cancer cells after combination treatment with αhFR AS6 oligonucleotide and doxorubicin. MDA-MB-435 cells were plated at 2×10^4 cells/well and transfected with 500 nM of αhFR AS6 or S6 end-modified phosphorothioated oligonucleotide. After 24 hrs, cells were incubated with media containing doxorubicin at the indicated concentrations. Cell survival was determined by XTT assay after 72 hrs.
# To determine whether or not αhFR antisense oligonucleotide sensitizes breast cancer cells to chemotherapy, the following experiment was carried out. 500 nM of AS6 oligonucleotide or S6 oligonucleotide was transfected into MDA-MB-435 cells and treated with varying concentrations of doxorubicin, twenty-four hours after transfection. Cell survival was determined after 72 hrs by XTT assay and the degree of sensitization was calculating by determining the ratio of IC50 values of the combined treatment relative to that of the S6 oligonucleotide and untreated controls. In FIG. 11, chemosensitization of MDA-MD-435 cells by AS6 oligonucleotide was about 5 fold (IC50 S6/IC50 AS6=5) relative to the sense control and about 10 fold (IC50 UT/IC50 AS6=10) relative to the untreated control.
# [7] = system: KB cells; assay: KB cell viability after cytofectin transfection of ribozymes, Cell Counting Kit-8 colorimetric assay
# Procedure: The viability of KB cells transfected with wild type or control mutant and sense ribozymes was assessed by colormetric assay. […] (FIG. 6A). […] Approximately 75% of the initial transfected ribozyme amounts disappeared after 1 hour. The quick half-life of ribozyme integrity may explain the unexpected lowered effect of αhFR ribozymes versus antisense oligonucleotides on KB cell survival.
# In vitro synthesized wild type, mutant or sense-oriented ribozymes were transfected into 6×10^4 KB cells with cytofectin (Glen Research, Rockville, Md.), according to manufacturers instruction. Transfections were terminated by replacing media with 1 ml of serum-containing low-folate media. Cell viability was quantitated after 36 hours by the Cell Counting Kit-8 (Dojindo, Gaithersburg, Md.). For ribozyme decay analysis, in vitro synthesized ribozymes were radiolabeled with [α-^32P]-rCTP and rGTP using the riboprobe kit (Promega, Madison, Wis.). Radiolabeld ribozymes were transfected by the cytofectin method as described above. Total RNA was extracted at the indicated time points using the RNeasy mini kit (Quiagen, Valencia, Calif.), fractionated on a 6% sequencing gel and visualized by autoradiography. Amounts of intact internalized ^32P-labeled ribozyme were determined using the NIH image software.
molecule,measurement,setting,value
"AS-1: antisense 21-mer DNA TGTTGTCATCCGCTGAGCCAT, αhFR open reading frame 21–1, SEQ ID NO. 2 (antisense TGTTGTCATCCGCTGAGCCAT; unmodified DNA)",αhFR mRNA by Northern analysis,[1],remained unaffected
"AS-2: antisense 21-mer DNA AGGAGGTCAGCTGAGCAGCCA, αhFR open reading frame 780–760, SEQ ID NO. 3 (antisense AGGAGGTCAGCTGAGCAGCCA; unmodified DNA)",αhFR mRNA by Northern analysis,[1],remained unaffected
"S6: sense control 21-mer ACCTCCTACACCTGCAAGAGC, 442–462 (sense ACCTCCTACACCTGCAAGAGC; DNA, backbone and methylation of C not given here; S-6 used both unmodified and phosphorothioate-modified, form not tied to measurement, further chemistry not fully specified) [reference compound]",effect on survival of model breast cancer cell lines,"[2]; stated for the breast cancer cell lines together (T47D, MDA-MB-231, MDA-MB-435), versus AS6",significantly less effect
"AS-6: antisense 21-mer DNA GCTCTTGCAGGTGTAGGAGGT, αhFR ORF 462–442, SEQ ID NO. 4; unmodified or phosphorothioated (antisense GCTCTTGCAGGTGTAGGAGGT; DNA, backbone and methylation of C not given here; phosphorothioate modified, described as end-modified)",αhFR mRNA by Northern analysis,[1],remained unaffected
same,decrease in overall protein content,[3]; 10 μM phosphorothioate-modified oligo,20%
same,decrease in overall protein content,[3]; 50 μM phosphorothioate-modified oligo,60%
same,IC50,"[2]; T47D, end-modified phosphorothioated oligo, 6 hrs transfection, XTT at 48 hrs",633 nM
same,IC50,[4],600 nM
same,IC50,[5],416 nM
same,"chemosensitization to doxorubicin, IC50 S6/IC50 AS6",[6]; relative to sense control,about 5 fold
same,"chemosensitization to doxorubicin, IC50 UT/IC50 AS6",[6]; relative to untreated control,about 10 fold
"Rz 187/210 WT: wild type hammerhead ribozyme targeted to 5′ region of αhFR open reading frame; encoding DNA in Table II (nucleic acid, target site or template, no part of the molecule; chemistry not given here; one strand is listed 3' to 5') DNA 1: CCCGTCGACAATGCCTGCTGTTTCGTCCTCACGGACTCATCAGCTACCAACACAAGCTTCCC DNA 2: GGGCAGCTGTTACGGACGACAAAGCAGGAGTGCCTGAGTAGTCGATGGTTGTGTTCGAAGGG",decrease in cell survival,"[7]; KB cells, compared to control mutant and sense ribozymes",approximately 60%
"Rz 187/210 MUT: mutant control ribozyme, G in the catalytic structure changed to A (nucleic acid, target site or template, no part of the molecule; chemistry not given here; one strand is listed 3' to 5', mutant control ribozyme, G in the catalytic structure changed to A) DNA 1: CCCGTCGACAATGCCTGCTGTTTCGTCCTCACGGATTCATCAGCTACCAACACAAGCTTCCC DNA 2: GGGCAGCTGTTACGGACGACAAAGCAGGAGTGCCTAAGTAGTCGATGGTTGTGTTCGAAGGG",effect on cell survival,[7]; KB cells transfected with ribozyme,"little, if any effect"
